Key:
Format in all cases: binding
KRasWT1-169 = KRasWT1-169 (Homo sapiens, UniProt P01116); experiment: HPLC-based approach for determination of affinities relative to GDP; conditions: for KA: KA = KA(GDP) x KrelA, GDP from KA = 1/KD; for relative association constant KrelA: relative to GDP
Method: The relative affinities of the nucleotide analogues were measured using an HPLC-based approach. 50 μM of […] was mixed with 50 μM of the acetamide derivatives and incubated either for 7 days at room temperature in the absence of EDTA, for 24 hr at 4 °C in the presence of 10 mM EDTA, or for 1 hr at room temperature in the presence of SOS in a buffer consisting of 20 mM HEPES (pH 7.5), 100 mM NaCl, 2 mM MgCl2, 1 mM TCEP and 5% glycerol. After incubation, the Ras proteins were washed five times with buffer (15 mL) using centrifugal filter devices to remove any unbound nucleotide, concentrated and analysed by isocratic HPLC runs. The resulting curves were analysed by integrating the corresponding peaks for GDP and the guanosine nucleotide analogues after distinct time points using the Agilent ChemStation Software (Table 1-source data 3, Table 1-source data 4). Based on the percentage distribution determined by the HPLC assay, the relative association constants (KrelA) for […] and bdaGDP could subsequently be calculated. In contrast, the superposition of the GDP signal prevented an exact determination of the relative association constant for […] values of 0.34 and 0.28 relative to GDP were determined for […] and bdaGDP, respectively. […] By rearranging the equilibrium reactions listed in (Equation 1a) and (Equation 1b), the following relationships are obtained for KGDP (Equation 2a) and […] Assuming that the concentration for aGDP used in the HPLC assay is 50 μM, the following GDP concentrations for […] (Equation 3a) and bdaGDP (Equation 3b) can be determined at time t=0 hr using the percentages determined in Table 1-source data 3:(3a) GDPtotal=%GDP/%[…]=37%/63%×50μM=29.4μM (3b) GDPtotal=%GDP/%bdaGDP=43%/57%×50μM=37.7μM The concentrations of the components listed in equation (Equation 2b) can be calculated as follows for […] (Equation 4a, Equation 4b, Equation 4c, Equation 4d) and bdaGDP (Equation 5a, Equation 5b, Equation 5c, Equation 5d) by considering the total GDP concentrations calculated previously:(4[…]]=47/100×29.4μM=13.8μM (4b) [Ras:GDP]=53/100×29.4μM=15.6μ[…]]=50μM-13.8μM=36.2μM (4d) [GDP]=29.4μM-15.6μM=13.8μM (5a) [Ras:bdaGDP]=39.5/100×37.7μM=14.9μM (5b) [Ras:GDP]=60.5/100×37.7μM=22.8μM (5c) [bdaGDP]=50μM-14.9μM=35.1μM (5d) [GDP]=37.7μM-22.8μM=14.9μM The relative association constant KrelA can be calculated by the following formula (Equation 6):(6) […] By inserting the concentrations of each component determined from (Equation 4a, Equation 4b, Equation 4c, Equation 4d) and (Equation 5a, Equation 5b, Equation 5c, Equation 5d) into (Equation 6), the relative association constants KrelA for […] (Equation 10a) and […]=1/0.136pM^-1=7.4pM (10b) KDbdaGDP=1/0.112pM^-1=8.9pM

nucleotide-free KRas = experiment: Stopped-flow competition with mantdGDP (association kinetics); conditions: for kon: 25 °C, 1 µM KRas, 2 µM mantdGDP, 1, 2, 6 µM competing nucleotide, global fit; for koff: calculated kinetic parameter
Method: The association kinetics of the nucleotide analogues were analyzed with a SX-20 stopped-flow instrument (Applied Photophysics) at 25 °C in a buffer consisting of 25 mM HEPES (pH 7.5), 100 mM NaCl, 1 mM MgCl2, and 0.5 mM TCEP. 1 µM of nucleotide-free KRas ([Müller et al., 2017]) in one syringe was mixed rapidly with 2 µM mantdGDP in the other. In subsequent experiments, the second syringe contained competing nucleotides (1, 2, and 6 µM) in addition to 2 µM mantdGDP. The resulting progress curves were globally fit using KinTek Explorer to obtain the corresponding association rate constants as previously described (Table 1—source data 1, Table 1—source data 2 [Johnson et al., 2009]).

[1] = tested on: T1, KRasG13C1-169 (Cys-light); experiment: Covalent modification of protein controlled by ESI-MS
T1 construct: KRasWT1-169 and KRasG13C1-169 Cys-light (C51S C80L C118S) were expressed in BL21 (DE3) E. coli; hexahistidine (TEV site) (N, cleaved yes); made in house; host or cells: E. coli BL21 (DE3)
Method: After incubation at room temperature for the appropriate time, the modification of the protein was controlled by ESI-MS. For covalent modification of full-length KRasG13C, a nucleotide exchange with a 10-fold excess of the acryl-bearing nucleotides at pH 7.5 was first performed following incubation at room temperature for 24 h at pH 9.5 for covalent protein modification. Covalent protein modification was controlled by ESI-MS. The MS spectra were recorded on a VelosPro IonTrap (Thermo Scientific) with an EC 50/3 Nucleodur C18 1.8 μm column (Macherey and Nagel) and a gradient of the mobile phase A (0.1% formic acid in water) to B (0.1% formic acid in acetonitrile).

[2] = -EDTA, 7 days at room temperature
[3] = worked calculation KD = 1/KA, Equation 10a/10b

KRasWT1-169, sequence (P01116 1-169): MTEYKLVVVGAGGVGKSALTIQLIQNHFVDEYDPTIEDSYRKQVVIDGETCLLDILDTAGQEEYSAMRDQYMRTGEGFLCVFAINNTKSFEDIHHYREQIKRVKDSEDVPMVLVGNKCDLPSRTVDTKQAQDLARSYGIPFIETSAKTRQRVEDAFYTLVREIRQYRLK

Row | Compound | Kd (KRasWT1-169; +SOS, 1 hr at room temperature) | Kd (KRasWT1-169; [2]) | KA (KRasWT1-169) | relative association constant KrelA (KRasWT1-169) | Kd (KRasWT1-169; [3]) | kon (nucleotide-free KRas) | koff (nucleotide-free KRas) | covalent labelling of KRasG13C1-169 (Cys-light) ([1]; pH 7.5, after 24 hr) | covalent labelling of KRasG13C1-169 (Cys-light) ([1]; pH 9.5, after 24 hr)
1 | C=CC(=O)NCCCNC(=O)O[C@H]1[C@@H](O)[C@H](n2cnc3c(=O)[nH]c(N)nc32)O[C@@H]1COP(=O)(O)OP(=O)(O)O [pdaGDP] | 10.4 pM | 8 pM | 0.136 pM⁻¹ | 0.34 | 7.4 pM | 3.34 µM^–1s^–1 | 2.9x10^–5 s^–1 |  | 
2 | C=CC(=O)NCCCCNC(=O)O[C@H]1[C@@H](O)[C@H](n2cnc3c(=O)[nH]c(N)nc32)O[C@@H]1COP(=O)(O)OP(=O)(O)O [acryl-bdaGDP] |  |  |  |  |  |  |  | slight labelling | ~100%
3 | Nc1nc2c(ncn2[C@@H]2O[C@H](COP(=O)(O)OP(=O)(O)OP(=O)(O)O)[C@@H](O)[C@H]2O)c(=O)[nH]1 [GTP, reference compound] |  |  |  |  |  | 5.23 µM^–1s^–1 |  |  | 
4 | C=CC(=O)NCCCCNC(=O)O[C@H]1[C@@H](O)[C@H](n2cnc3c(=O)[nH]c(N)nc32)O[C@@H]1COP(=O)(O)OP(=O)(O)O [bdaGDP] | 10 pM | 10 pM | 0.112 pM⁻¹ | 0.28 | 8.9 pM | 3.12 µM^–1s^–1 | 3.0x10^–5 s^–1 |  | 
5 | C=CC(=O)NCCCNC(=O)O[C@H]1[C@@H](O)[C@H](n2cnc3c(=O)[nH]c(N)nc32)O[C@@H]1COP(=O)(O)OP(=O)(O)O [acryl-pdaGDP] |  |  |  |  |  |  |  | slight labelling | ~100%

From paper PMC10042540, “Targeting oncogenic KRasG13C with nucleotide-based covalent inhibitors” (eLife, 2023)
